Assay results as given in patent publication US10766914B2, “DNA alkylating agents” (OBI PHARMA, INC., priority 2015, dated 2020).

What was measured:
[1] = Example 4-A body weight change, H460 xenograft study; assay type: in vivo, female nude mice (nu/nu); settings: 60 mg/kg ip Q3D × 5
Protocol: Cells were mixed with Matrigel (50% with exception for 30% in the H460) and 0.2 ml per mouse were subcutaneously implanted to the flank area of the animals. When tumor size reached 100-150 250 mm3, mice were randomized into experimental or vehicle groups with 10 mice/group and treatment was started (Day 1). The tested compounds were formulated in 5% DMSO in D5W. The regimens employed in the examples include IP, QD×5/wk (5 days on, 2 days off) as one cycle, for a total of 2 cycles; IP, once; IP, weekly for total 3 weeks; and IV, weekly for 3 weeks. Tumor growth and body weight were measured twice a week. Tumor volume was calculated as (length×width2)/2. Drug efficacy was assessed as Tumor Growth Inhibition (TGI) and Tumor Growth Delay (TGD). TGI was defined as (1−ΔT/ΔC)×100, where ΔT/ΔC presented the ratio of the change in mean (or median, if variation within the group was relatively large) tumor volume of the treated group and of the control group. TGD was calculated as the extra days for the treated tumor to reach 500 mm3 or 1000 mm3 as compared to the control group. Animals were culled when individual tumor size reached over 2000 mm3 or mean tumor volume exceeded 1000 mm3 in the group. Data are expressed as the mean±SEM. One-way analysis of variance with Dunnett post comparison test (GraphPad Prism 4) or two-tailed student's t-test were used for analysis. […]

[2] = tested on: H460 non-small cell lung cancer xenograft tumor; experiment: Example 4-A antitumor efficacy, ectopic H460 NSCLC xenograft model; assay type: in vivo, female nude mice (nu/nu); settings: 60 mg/kg ip Q3D × 5; H460
Text: (§1) Specific pathogen-free homozygous female nude mice (nu/nu, Charles River Laboratories) were used. Mice were given food and water ad libitum and housed in microisolator cages. Four to six week old animals were identified by microchips (Locus Technology, Manchester, Md., USA) at the time of the experiments. All animal studies were approved by the Institutional Animal Care and Use Committee at Threshold Pharmaceuticals, Inc.
(§2) All cell lines were from the American Type Culture Collection (ATCC, Rockville, Md., USA).
(§3) Cells were mixed with Matrigel (50% with exception for 30% in the H460) and 0.2 ml per mouse were subcutaneously implanted to the flank area of the animals. When tumor size reached 100-150 250 mm3, mice were randomized into experimental or vehicle groups with 10 mice/group and treatment was started (Day 1). The tested compounds were formulated in 5% DMSO in D5W. The regimens employed in the examples include IP, QD×5/wk (5 days on, 2 days off) as one cycle, for a total of 2 cycles; IP, once; IP, weekly for total 3 weeks; and IV, weekly for 3 weeks. Tumor growth and body weight were measured twice a week. Tumor volume was calculated as (length×width2)/2. Drug efficacy was assessed as Tumor Growth Inhibition (TGI) and Tumor Growth Delay (TGD). TGI was defined as (1−ΔT/ΔC)×100, where ΔT/ΔC presented the ratio of the change in mean (or median, if variation within the group was relatively large) tumor volume of the treated group and of the control group. TGD was calculated as the extra days for the treated tumor to reach 500 mm3 or 1000 mm3 as compared to the control group. Animals were culled when individual tumor size reached over 2000 mm3 or mean tumor volume exceeded 1000 mm3 in the group. Data are expressed as the mean±SEM. One-way analysis of variance with Dunnett post comparison test (GraphPad Prism 4) or two-tailed student's t-test were used for analysis. A P level <0.05 was considered statistically significant.
Compounds provided herein were tested in vivo human tumor xenograft models and compared to standard chemotherapeutic agents such as gemcitabine, nab-paclitaxel. […] The compound was dosed as follows: daily IP dosing: 5 doses then 2 days off then 5 more doses starting at 100 mm^3 tumors on day 1 (10 animals per group median tumor volume). It is contemplated that in some embodiments, the compounds provided herein are activated by human and not by mouse enzymes. The antitumor effects and the safety of administration are graphically illustrated in FIGS. 3-20 below.

[3] = Example 4-E body weight change, 786-O xenograft study; assay type: in vivo, female nude mice (nu/nu); settings: 40 mpk, po, qd × 5/wk × 2
Protocol: as §3, with “The regimens employed in the examples include IP, QD×5/wk (5 days on, 2 days off) as one cycle, for a total of 2 cycles; IP, once; IP, weekly for total 3 weeks; and IV, weekly for 3 weeks.” left out
The compound TH-2768 was tested in a renal cell carcinoma 786-O model. The compound was dosed as follows. […]

[4] = tested on: renal cell carcinoma 786-O xenograft; experiment: Example 4-E antitumor efficacy, renal cell carcinoma 786-O xenograft model; assay type: in vivo, female nude mice (nu/nu); settings: 40 mpk, po, qd × 5/wk × 2
Text: as §1, §2
Cells were mixed with Matrigel (50% with exception for 30% in the H460) and 0.2 ml per mouse were subcutaneously implanted to the flank area of the animals. When tumor size reached 100-150 250 mm3, mice were randomized into experimental or vehicle groups with 10 mice/group and treatment was started (Day 1). The tested compounds were formulated in 5% DMSO in D5W. […] Tumor growth and body weight were measured twice a week. Tumor volume was calculated as (length×width2)/2. Drug efficacy was assessed as Tumor Growth Inhibition (TGI) and Tumor Growth Delay (TGD). […] TGD was calculated as the extra days for the treated tumor to reach 500 mm3 or 1000 mm3 as compared to the control group. […] Data are expressed as the mean±SEM. […]

[5] = background statement; cited from earlier work
AKR1C3 = target: T1, AKR1C3 (Homo sapiens, UniProt P42330); settings: background statement; cited from earlier work
T1 sequence (P42330 1-323): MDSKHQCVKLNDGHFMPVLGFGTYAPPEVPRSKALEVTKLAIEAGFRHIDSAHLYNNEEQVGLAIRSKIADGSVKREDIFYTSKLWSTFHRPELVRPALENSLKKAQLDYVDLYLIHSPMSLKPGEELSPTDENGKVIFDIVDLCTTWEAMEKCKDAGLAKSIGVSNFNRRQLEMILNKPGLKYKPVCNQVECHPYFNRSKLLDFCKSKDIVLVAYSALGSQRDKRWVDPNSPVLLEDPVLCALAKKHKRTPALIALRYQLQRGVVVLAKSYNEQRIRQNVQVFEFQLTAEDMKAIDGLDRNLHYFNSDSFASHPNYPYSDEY

Compound: Nc1ccn([C@@H]2O[C@H](CO)[C@@H](O)C2(F)F)c(=O)n1 [GEM, gemcitabine, reference compound]
- Max. BW loss % [1]: 4.9%
- TGD 500 [2]: 7 days
- TGD 1000 [2]: 7 days
- TGI [2]: 42.7%

Compound: CCN(CC)CCNC(=O)c1c(C)[nH]c(/C=C2\C(=O)Nc3ccc(F)cc32)c1C [Sunitinib, sunitinib, reference compound]
- Max. BW loss % [3]: 0.3%
- TGI [4]: 67.8%

Compound: CS(=O)(=O)OCCN(CCBr)c1c(C(=O)NCCOP(=O)(O)O)cc([N+](=O)[O-])cc1[N+](=O)[O-] [PR 104]
- efficacy in clinical trials [5]: ineffective
- substrate for AKR1C3 (AKR1C3): weak substrate
